This passage reports EC50 results from patent EP2766361B1, “8-CARBAMOYL-2-(2,3-DISUBSTITUTED PYRID-6-YL)-1,2,3,4-TETRAHYDROISOQUINOLINE DERIVATIVES AS APOPTOSIS-INDUCING AGENTS FOR THE TREATMENT OF CANCER AND IMMUNE AND AUTOIMMUNE DISEASES” (priority 2011, dated 2013).

For the assay, the system named is mouse FL5.12 cells transfected with Bcl-xL. Kind of assay: FL5.12 cellular assay (cell viability, CellTiter-Glo). The class given is cell-based. The settings on record: IL-3-depleted, 3% FBS assay media, 24 hours, read-out: FL5.12 Bcl-xL, -IL3, EC50. Here is the method:
Cell viability was assayed using the CellTiter-Glo assay (Promega Corp., Madison, WI) according to the manufacturer instructions. Individual determinations were the result of duplicate values. […] Table 2. In Vitro Data
On the technique in general: In ATP-based viability assays light output follows the ATP content of the culture.
For orientation: EC50 means the concentration at which the effect is half-maximal. `O=C(Nc1nc2ccccc2s1)c1cccc2c1CN(c1ccc(-c3ccnc(OCC45CC6CC(CC(C6)C4)C5)c3)c(C(=O)O)n1)CC2` [Example 25, 6-[8-(1,3-benzothiazol-2-ylcarbamoyl)-3,4-dihydroisoquinolin-2(1H)-yl]-2'-(tricyclo[3.3.1.1^3,7]dec-1-ylmethoxy)-3,4'-bipyridine-2-carboxylic acid]: the concentration giving a half-maximal response (EC50) is above 1000 nM. For the compound `O=C(Nc1nc2ccccc2s1)c1cccc2c1CN(c1ccc(-c3cnn(CC45CC6CC(C4)CC(OCCN4CCOCC4)(C6)C5)c3)c(C(=O)O)n1)CC2` [Example 26, 6-[8-(1,3-benzothiazol-2-ylcarbamoyl)-3,4-dihydroisoquinolin-2(1H)-yl]-3-[1-({3-[2-(morpholin-4-yl)ethoxy]tricyclo[3.3.1.1^3,7]dec-1-yl}methyl)-1H-pyrazol-4-yl]pyridine-2-carboxylic acid], the half-maximal effective concentration (EC50) worked out at 243 nM. `Cc1c(-c2ccc(N3CCc4cccc(C(=O)Nc5nc6ccccc6s5)c4C3)nc2C(=O)O)ccnc1OCC12CC3CC(CC(C3)C1)C2` [Example 27, 6-[8-(1,3-benzothiazol-2-ylcarbamoyl)-3,4-dihydroisoquinolin-2(1H)-yl]-3'-methyl-2'-(tricyclo[3.3.1.1^3,7]dec-1-ylmethoxy)-3,4'-bipyridine-2-carboxylic acid]: the concentration for a half-maximal effect (EC50) is 214 nM. With `N#Cc1c(-c2ccc(N3CCc4cccc(C(=O)Nc5nc6ccccc6s5)c4C3)nc2C(=O)O)cnn1CC12CC3CC(CC(C3)C1)C2` [Example 29, 6-[8-(1,3-benzothiazol-2-ylcarbamoyl)-3,4-dihydroisoquinolin-2(1H)-yl]-3-{5-cyano-1-[tricyclo[3.3.1.1^3,7]dec-1-ylmethyl]-1H-pyrazol-4-yl}pyridine-2-carboxylic acid] the figure was 3 nM. In the case of `Cc1c(-c2ccc(N3CCc4cccc(C(=O)Nc5nc6ncccc6s5)c4C3)nc2C(=O)O)cnn1CC12CC3CC(CC(C3)C1)C2` [Example 30, 3-[5-methyl-1-(tricyclo[3.3.1.1^3,7]dec-1-ylmethyl)-1H-pyrazol-4-yl]-6-[8-([1,3]thiazolo[4,5-b]pyridin-2-ylcarbamoyl)-3,4-dihydroisoquinolin-2(1H)-yl]pyridine-2-carboxylic acid], the EC50 came to 49 nM. As for `Cc1c(-c2ccc(N3CCc4cccc(C(=O)Nc5nc6cnccc6s5)c4C3)nc2C(=O)O)cnn1CC12CC3CC(CC(C3)C1)C2` [Example 31, 3-[5-methyl-1-(tricyclo[3.3.1.1^3,7]dec-1-ylmethyl)-1H-pyrazol-4-yl]-6-[8-([1,3]thiazolo[4,5-c]pyridin-2-ylcarbamoyl)-3,4-dihydroisoquinolin-2(1H)-yl]pyridine-2-carboxylic acid], the half-maximal effective concentration (EC50) came to 5 nM. In the case of `Cc1c(-c2ccc(N3CCc4cccc(C(=O)Nc5nc6ccccc6s5)c4C3)nc2C(=O)O)cnn1CC12CC3CC(C)(CC(C)(C3)C1)C2` [Example 32, 6-[8-(1,3-benzothiazol-2-ylcarbamoyl)-3,4-dihydroisoquinolin-2(1H)-yl]-3-(1-{[3,5-dimethyltricyclo[3.3.1.1^3,7]dec-1-yl]methyl}-5-methyl-1H-pyrazol-4-yl)pyridine-2-carboxylic acid], the EC50 was found to be 1 nM. With `O=C(Nc1nc2ccccc2s1)c1cccc2c1CN(c1ccc(-c3cnn(CC45CC6CC(C4)CC(N4CCS(=O)(=O)CC4)(C6)C5)c3)c(C(=O)O)n1)CC2` [Example 33, 6-[8-(1,3-benzothiazol-2-ylcarbamoyl)-3,4-dihydroisoquinolin-2(1H)-yl]-3-(1-{[3-(1,1-dioxidothiomorpholin-4-yl)tricyclo[3.3.1.1^3,7]dec-1-yl]methyl}-1H-pyrazol-4-yl)pyridine-2-carboxylic acid] the figure was above 1000 nM; with `Cc1c(-c2ccc(N3CCc4cccc(C(=O)Nc5nc6ccccc6s5)c4C3)nc2C(=O)O)cc(C#N)n1CCC12CC3CC(CC(C3)C1)C2` [Example 34, 6-[8-(1,3-benzothiazol-2-ylcarbamoyl)-3,4-dihydroisoquinolin-2(1H)-yl]-3-{5-cyano-2-methyl-1-[2-(tricyclo[3.3.1.1^3,7]dec-1-yl)ethyl]-1H-pyrrol-3-yl}pyridine-2-carboxylic acid], 150 nM. `Cc1c(-c2ccc(N3CCc4cccc(C(=O)Nc5nc6ccccc6s5)c4C3)nc2C(=O)NS(C)(=O)=O)cc(C#N)n1CC12CC3CC(CC(C3)C1)C2` [Example 35, N-(1,3-benzothiazol-2-yl)-2-{5-[5-cyano-2-methyl-1-(tricyclo[3.3.1.1^3,7]dec-1-ylmethyl)-1H-pyrrol-3-yl]-6-[(methylsulfonyl)carbamoyl]pyridin-2-yl}-1,2,3,4-tetrahydroisoquinoline-8-carboxamide]: the 50% effective concentration (EC50) was determined as 1 nM. In the case of `Cc1c(-c2ccc(N3CCc4cccc(C(=O)Nc5nc6ccccc6s5)c4C3)nc2C(=O)NS(=O)(=O)C2CC2)cc(C#N)n1CC12CC3CC(CC(C3)C1)C2` [Example 36, N-(1,3-benzothiazol-2-yl)-2-{5-[5-cyano-2-methyl-1-(tricyclo[3.3.1.1^3,7]dec-1-ylmethyl)-1H-pyrrol-3-yl]-6-[(cyclopropylsulfonyl)carbamoyl]pyridin-2-yl}-1,2,3,4-tetrahydroisoquinoline-8-carboxamide] it was 0.8 nM; in that of `COC12CC3CC(CC(Cn4ncc(-c5ccc(N6CCc7cccc(C(=O)Nc8nc9ccccc9s8)c7C6)nc5C(=O)NS(C)(=O)=O)c4C)(C3)C1)C2` [Example 37, N-(1,3-benzothiazol-2-yl)-2-{5-(1-{[3-methoxytricyclo[3.3.1.1^3,7]dec-1-yl]methyl}-5-methyl-1H-pyrazol-4-yl)-6-[(methylsulfonyl)carbamoyl]pyridin-2-yl}-1,2,3,4-tetrahydroisoquinoline-8-carboxamide], 3 nM. With `COC12CC3(C)CC(C)(CC(Cn4ncc(-c5ccc(N6CCc7cccc(C(=O)Nc8nc9ccccc9s8)c7C6)nc5C(=O)O)c4C)(C3)C1)C2` [Example 38, 6-[8-(1,3-benzothiazol-2-ylcarbamoyl)-3,4-dihydroisoquinolin-2(1H)-yl]-3-(1-{[3-methoxy-5,7-dimethyltricyclo[3.3.1.1^3,7]dec-1-yl]methyl}-5-methyl-1H-pyrazol-4-yl)pyridine-2-carboxylic acid] the figure was 0.1 nM; with `COC12CC3CC(CC(Cn4ncc(-c5ccc(N6CCc7cccc(C(=O)Nc8nc9ccccc9s8)c7C6)nc5C(=O)NS(=O)(=O)N5CCOCC5)c4C)(C3)C1)C2` [Example 39, N-(1,3-benzothiazol-2-yl)-2-{5-(1-{[3-methoxytricyclo[3.3.1.1^3,7]dec-1-yl]methyl}-5-methyl-1 H-pyrazol-4-yl)-6-[(morpholin-4-ylsulfonyl)carbamoyl]pyridin-2-yl}-1,2,3,4-tetrahydroisoquinoline-8-carboxamide], 0.6 nM. In the case of `COC12CC3CC(CC(Cn4ncc(-c5ccc(N6CCc7cccc(C(=O)Nc8nc9ccccc9s8)c7C6)nc5C(=O)NS(=O)(=O)C(F)(F)F)c4C)(C3)C1)C2` [Example 40, N-(1,3-benzothiazol-2-yl)-2-[5-(1-{[3-methoxytricyclo[3.3.1.1^3,7]dec-1-yl]methyl}-5-methyl-1H-pyrazol-4-yl)-6-{[(trifluoromethyl)sulfonyl]carbamoyl}pyridin-2-yl]-1,2,3,4-tetrahydroisoquinoline-8-carboxamide] it was 47 nM. `COC12CC3CC(CC(Cn4ncc(-c5ccc(N6CCc7cccc(C(=O)Nc8nc9ccccc9s8)c7C6)nc5C(=O)NS(=O)(=O)C5CC5)c4C)(C3)C1)C2` [Example 41]: the EC50 stood at 0.4 nM. With `[2H]C1([2H])c2c(cccc2C(=O)Nc2nc3ccccc3s2)CCN1c1ccc(-c2cnn(CC34CC5CC(CC(C5)C3)C4)c2C)c(C(=O)O)n1` [Example 44, 6-[8-(1,3-benzothiazol-2-ylcarbamoyl)-1,1-dideutero-3,4-dihydroisoquinolin-2(1H)-yl]-3-[5-methyl-1-(tricyclo[3.3.1.1^3,7]dec-1-ylmethyl)-1H-pyrazol-4-yl]pyridine-2-carboxylic acid] the figure was 0.3 nM. Consider `N#Cc1c(NC23CC4CC(CC(C4)C2)C3)cccc1-c1ccc(N2CCc3cccc(C(=O)Nc4nc5ccccc5s4)c3C2)nc1C(=O)O` [Example 47, 6-[8-(1,3-benzothiazol-2-ylcarbamoyl)-3,4-dihydroisoquinolin-2(1H)-yl]-3-{2-cyano-3-[tricyclo[3.3.1.1^3,7]dec-1-ylamino]phenyl}pyridine-2-carboxylic acid], for which the half-maximal effective concentration (EC50) came out at 54 nM. As for `N#Cc1c(SC23CC4CC(CC(C4)C2)C3)cccc1-c1ccc(N2CCc3cccc(C(=O)Nc4nc5ccccc5s4)c3C2)nc1C(=O)O` [Example 48, 6-[8-(1,3-benzothiazol-2-ylcarbamoyl)-3,4-dihydroisoquinolin-2(1H)-yl]-3-{2-cyano-3-[tricyclo[3.3.1.1^3,7]dec-1-ylsulfanyl]phenyl}pyridine-2-carboxylic acid], the concentration giving a half-maximal response (EC50) turned out to be 8 nM. Regarding `Cc1c(NC(=O)C23CC4CC(CC(C4)C2)C3)cccc1-c1ccc(N2CCc3cccc(C(=O)Nc4nc5ccccc5s4)c3C2)nc1C(=O)O` [Example 50, 6-[8-(1,3-benzothiazol-2-ylcarbamoyl)-3,4-dihydroisoquinolin-2(1H)-yl]-3-(2-methyl-3-{[tricyclo[3.3.1.1^3,7]dec-1-ylcarbonyl]amino}phenyl)pyridine-2-carboxylic acid], the concentration for a half-maximal effect (EC50) is above 1000 nM.

With `Cc1c(-c2ccc(N3CCc4cccc(C(=O)Nc5nc6ccccc6s5)c4C3)nc2C(=O)O)cccc1S(=O)(=O)NC12CC3CC(CC(C3)C1)C2` [Example 51, 6-[8-(1,3-benzothiazol-2-ylcarbamoyl)-3,4-dihydroisoquinolin-2(1H)-yl]-3-{2-methyl-3-[tricyclo[3.3.1.1^3,7]dec-1-ylsulfamoyl]phenyl}pyridine-2-carboxylic acid], the half-maximal effective concentration (EC50) came out at 164 nM.

For the compound `Cc1c(-c2ccc(N3CCc4cccc(C(=O)Nc5nc6ccccc6s5)c4C3)nc2C(=O)O)cnn1CC12CC3CC(C1)CC(OCC1CCOCC1)(C3)C2` [Example 53, 6-[8-(1,3-benzothiazol-2-ylcarbamoyl)-3,4-dihydroisoquinolin-2(1H)-yl]-3-(5-methyl-1-{[3-(tetrahydro-2H-pyran-4-ylmethoxy)tricyclo[3.3.1.1^3,7]dec-1-yl]methyl}-1H-pyrazol-4-yl)pyridine-2-carboxylic acid], the concentration for a half-maximal effect (EC50) amounted to 4 nM.
